Measurements as given in PubChem BioAssay (NCI).
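Five compound concentrations were applied to cells in 96-well plates for 48 hours; endpoints were derived by simple linear interpolation of the resulting dose-response curve. Abbreviation: GI50, concentration required for 50% inhibition of growth. TGI: concentration producing complete growth inhibition.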

Experiments:
Assay in all cases: DTP human tumour cell line panel, 48 h
[1] = system: MDA-MB-231 breast
[2] = system: MOLT-4 leukemia
[3] = system: MDA-MB-435
[4] = system: SF-268 CNS
[5] = system: DU-145 prostate
[6] = system: SK-OV-3 ovarian
[7] = system: MALME-3M melanoma
[8] = system: SK-MEL-5 melanoma
[9] = system: SK-MEL-28 melanoma
[10] = system: UACC-62 melanoma
[11] = system: HS 578T breast

Row | SMILES | TGI [1] | TGI [2] | TGI [3] | TGI [4] | TGI [5] | TGI [6] | TGI [7] | TGI [8] | TGI [9] | TGI [10] | TGI [11] | GI50 [1] | GI50 [2] | GI50 [3] | GI50 [4] | GI50 [5] | GI50 [7] | GI50 [9] | GI50 [10] | GI50 [11]
1 | COc1ccc(-c2c3c(n(C4OC(COC(C)=O)C(OC(C)=O)C(OC(C)=O)C4OC(C)=O)c(=S)c2C#N)CCCC3)cc1 (stereo not given) | > 100 µM | > 100 µM | > 100 µM | > 100 µM | > 100 µM | > 100 µM | > 100 µM | > 100 µM | > 100 µM | > 100 µM | – | – | – | – | – | – | – | – | – | –
2 | COC(=O)c1cc(OCc2cc(OCc3ccc(Br)cc3)cc(OCc3ccc(Br)cc3)c2)cc(OCc2cc(OCc3ccc(Br)cc3)cc(OCc3ccc(Br)cc3)c2)c1 | > 100 µM | > 100 µM | > 100 µM | > 100 µM | > 100 µM | > 100 µM | > 100 µM | > 100 µM | > 100 µM | > 100 µM | – | – | – | – | – | – | – | – | – | –
3 | O=C(O)c1cc2sc(C(=O)O)cc2s1 | – | > 100 µM | – | > 100 µM | – | > 100 µM | > 100 µM | > 100 µM | – | > 100 µM | – | – | – | – | – | – | – | – | – | –
4 | COc1ccc(OC/C(N=Cc2cccnc2)=N/NC(=O)c2ccncc2)cc1 | > 100 µM | > 100 µM | 82.1 µM | > 100 µM | > 100 µM | > 100 µM | > 100 µM | – | > 100 µM | > 100 µM | > 100 µM | – | – | – | – | – | – | – | – | –
5 | COc1ccc(OC)c2c1-c1nnnn1CCC2(C)C | > 100 µM | > 100 µM | > 100 µM | > 100 µM | > 100 µM | > 100 µM | > 100 µM | – | > 100 µM | > 100 µM | > 100 µM | – | – | – | – | – | – | – | – | –
6 | COc1ccccc1N1C(=O)/C(=C\c2ccccc2)SC1c1cc(OC)c(OC)c(OC)c1 (stereo not given) | 71.3 µM | > 100 µM | 46.5 µM | > 100 µM | – | > 100 µM | > 100 µM | > 100 µM | > 100 µM | > 100 µM | > 100 µM | – | – | – | – | – | – | – | – | –
7 | O=CC1C(=O)Nc2nc3ccccc3n2C1c1ccccc1 (stereo not given) | 44.3 µM | 5.73 µM | 44.8 µM | 27 µM | 25.3 µM | – | 53.7 µM | 28.7 µM | 46.4 µM | 31.9 µM | > 100 µM | – | – | – | – | – | – | – | – | –
8 | Cc1c(OCc2cccc3ccccc23)ccc2c(=O)cc(S)oc12 | > 100 µM | > 100 µM | 98.6 µM | > 100 µM | > 100 µM | – | – | > 100 µM | > 100 µM | 73.3 µM | > 100 µM | – | – | – | – | – | – | – | – | –
9 | COc1ccc(C(CC(=O)c2ccc(O)cc2)C(C(=O)c2ccc(O)cc2)C(c2ccc(OC)cc2)C2C(=O)NC(=S)NC2=O)cc1 (stereo not given) | 55.9 µM | > 100 µM | 61.2 µM | 35.3 µM | 33.8 µM | – | – | 42.5 µM | 48.8 µM | 36.1 µM | 67.8 µM | – | – | – | – | – | – | – | – | –
10 | CC1(C)CC(=O)C(/C=N/c2nc(-c3cccc([N+](=O)[O-])c3)cs2)=C(O)C1 | 43 µM | > 100 µM | 60.7 µM | 44.1 µM | > 100 µM | > 100 µM | – | – | – | 42.2 µM | 62.4 µM | – | – | – | – | – | – | – | – | –
11 | Cc1cn(C2CC(/[N+]([O-])=N\Nc3ccc([N+](=O)[O-])cc3)C(CO)O2)c(=O)[nH]c1=O (stereo not given) | > 100 µM | > 100 µM | > 100 µM | > 100 µM | > 100 µM | > 100 µM | > 100 µM | – | > 100 µM | > 100 µM | > 100 µM | – | – | – | – | – | – | – | – | –
12 | CN=C(NC#N)NCc1ccccc1 | – | > 100 µM | – | > 100 µM | – | > 100 µM | > 100 µM | > 100 µM | > 100 µM | – | – | – | – | – | – | – | – | – | – | –
13 | COc1cc(/C=C2\CCCC3=C2N=C2SC=NN2C3c2cc(OC)c(OC)c(OC)c2)cc(OC)c1OC (stereo not given) | > 100 µM | – | 5.17 µM | > 100 µM | > 100 µM | – | 7.09 µM | – | 5.26 µM | 3.66 µM | > 100 µM | 4.95 µM | 3.06 µM | 2.04 µM | 3.48 µM | 3.97 µM | 2.99 µM | 2.07 µM | 1.68 µM | 4.85 µM
14 | COc1ccc(/C=C/C(=O)N[C@@H]2C(=O)N3[C@@H]2SC(C)(C)[C@@H]3C(=O)O)cc1OC | > 100 µM | > 100 µM | > 100 µM | > 100 µM | > 100 µM | > 100 µM | – | > 100 µM | > 100 µM | > 100 µM | > 100 µM | – | – | – | – | – | – | – | – | –
15 | CN1CCN2CCN(C)CCN(CC1)CC2 | > 100 µM | > 100 µM | > 100 µM | > 100 µM | > 100 µM | > 100 µM | – | > 100 µM | > 100 µM | > 100 µM | > 100 µM | – | – | – | – | – | – | – | – | –
